In ChEMBL document CHEMBL1201862, “PubChem BioAssay data set” (2004):
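Exposure lasted 48 hours, with cells grown in 96-well plates and compounds tested at five concentrations. The concentration for 50% growth inhibition is given as GI50.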 Calls of active or inactive are those of the source. No stated cut-off is given here; in the data, active = GI50 up to about 1.1 µM and inactive = higher.

Assays:
Experiment in all cases: NCI-60 cell line screen, 48 h
[1] = system: 786-0
[2] = system: A549
[3] = system: CCRF-CEM
[4] = system: COLO 205
[5] = system: HL-60
[6] = system: HOP-92
[7] = system: LOX IMVI
[8] = system: MDA-MB-435
[9] = system: NCI/ADR-RES
[10] = system: OVCAR-3
[11] = system: OVCAR-4
[12] = system: OVCAR-8
[13] = system: RPMI-8226
[14] = system: RXF 393
[15] = system: SF-268
[16] = system: SF-295
[17] = system: SK-OV-3
[18] = system: SNB-19
[19] = system: TK-10
[20] = system: UACC-62

Measured: GI50

CC[S+]1C2=C(CC(C)(C)CC2=O)[N-]c2ccccc21 (configuration not stated)
inactive: [1] > 100 µM | [2] > 100 µM | [3] > 100 µM | [4] > 100 µM | [5] > 100 µM | [6] > 100 µM | [7] > 100 µM | [8] > 100 µM | [9] > 100 µM | [10] > 100 µM | [11] > 100 µM | [12] > 100 µM | [13] > 100 µM | [14] > 100 µM | [15] > 100 µM | [16] 31.6 µM | [17] > 100 µM | [18] > 100 µM | [19] > 100 µM | [20] > 100 µM

NNC(=O)c1ccc(OCc2nc3ccccc3[nH]2)cc1
inactive: [1] > 100 µM | [2] > 100 µM | [4] 71.4 µM | [5] 43.7 µM | [6] > 100 µM | [7] > 100 µM | [8] > 100 µM | [9] > 100 µM | [10] 43.5 µM | [11] > 100 µM | [12] > 100 µM | [13] 55.6 µM | [14] 34.8 µM | [15] 89.3 µM | [16] > 100 µM | [17] > 100 µM | [18] > 100 µM | [19] > 100 µM | [20] > 100 µM

O=C1NN=C2C=C(c3ccc(Cl)cc3)CC(c3cccc(Cl)c3)C12 (configuration not stated)
inactive: [1] 21.4 µM | [2] 16.4 µM | [3] 23.6 µM | [4] 16.8 µM | [5] 21.2 µM | [6] 9.79 µM | [7] 18.5 µM | [8] 19.1 µM | [9] 39 µM | [10] 29.5 µM | [11] 17.2 µM | [12] 45.4 µM | [13] 20.5 µM | [14] 14.5 µM | [15] 23.1 µM | [16] 18.7 µM | [17] 25.1 µM | [18] 15.1 µM | [19] 20.1 µM | [20] 15.8 µM

Cn1c2c(c3ccccc31)CC(=O)N1CCCC(C1)CC21OCCO1 (configuration not stated)
inactive: [1] > 100 µM | [2] > 100 µM | [3] > 100 µM | [4] > 100 µM | [5] > 100 µM | [6] > 100 µM | [7] > 100 µM | [8] > 100 µM | [9] > 100 µM | [10] > 100 µM | [11] > 100 µM | [12] > 100 µM | [13] > 100 µM | [14] 13.6 µM | [15] > 100 µM | [16] > 100 µM | [17] > 100 µM | [18] > 100 µM | [19] > 100 µM | [20] > 100 µM

O=C1C=CC(O)(C#CCO)C=C1
inactive: [1] 9.91 µM | [2] 23.8 µM | [3] 11.6 µM | [4] 6.85 µM | [5] 3.17 µM | [6] 2.59 µM | [7] 10.5 µM | [8] 12.4 µM | [9] 6.73 µM | [10] 17 µM | [11] 11.9 µM | [12] 13.3 µM | [13] 3.74 µM | [14] 4.02 µM | [15] 17.6 µM | [16] 39.3 µM | [17] 58.1 µM | [18] 22 µM | [19] 13.1 µM | [20] 15.6 µM

CCCCNC(=O)Nc1c(C(N)=O)c2n(c1C(=O)OCC)CCCCC2
inactive: [1] > 100 µM | [3] > 100 µM | [4] > 100 µM | [5] > 100 µM | [6] > 100 µM | [7] > 100 µM | [8] > 100 µM | [9] > 100 µM | [11] > 100 µM | [12] > 100 µM | [13] > 100 µM | [14] > 100 µM | [15] > 100 µM | [16] > 100 µM | [17] > 100 µM | [18] > 100 µM | [19] > 100 µM | [20] > 100 µM

CSC(=S)N/N=C(\C)c1ccc(S(=O)(=O)N(C)c2ccccc2)cc1
inactive: [1] 34.4 µM | [2] 29.1 µM | [4] 68.4 µM | [5] 6.5 µM | [6] 23.8 µM | [7] 18.3 µM | [8] 22.9 µM | [9] 28.8 µM | [10] 16.7 µM | [11] 25.6 µM | [12] 31.6 µM | [13] 27.8 µM | [14] 77.8 µM | [15] 9.44 µM | [16] 12.8 µM | [17] 59.2 µM | [18] 26.4 µM | [19] > 100 µM | [20] 43.2 µM

CCOC(=O)c1cc(C(=O)c2ccccc2)n2nc(-c3ccc(Cl)cc3)ccc12
inactive: [1] 15.2 µM | [2] 15.4 µM | [3] > 100 µM | [4] 50.7 µM | [5] > 100 µM | [6] 24.8 µM | [7] 56.4 µM | [8] 33.6 µM | [9] 23.4 µM | [11] 16.6 µM | [13] 91.2 µM | [14] 15.2 µM | [15] 13.5 µM | [16] 20.4 µM | [17] 17 µM | [18] 16.4 µM | [19] 19.3 µM | [20] 17.3 µM

O=c1c2cc(-c3ccccc3)sc2nc2n1N=C(c1ccccc1)CS2
inactive: [1] 13.8 µM | [2] 21.4 µM | [3] 57.7 µM | [4] 79.3 µM | [5] > 100 µM | [6] 12.1 µM | [7] 27.3 µM | [8] 37.5 µM | [9] 13.4 µM | [10] 18.2 µM | [11] 15.8 µM | [12] 32.1 µM | [13] > 100 µM | [14] > 10 µM | [15] 24.3 µM | [16] 15.5 µM | [17] 10.6 µM | [19] 40.3 µM | [20] 12.4 µM

COC(=O)C[C@H](COCc1ccccc1)NC(=O)C[C@H](COCc1ccccc1)NC(=O)OC(C)(C)C
inactive: [1] 20.4 µM | [2] 24.2 µM | [3] > 100 µM | [4] > 100 µM | [5] > 100 µM | [6] 23.7 µM | [7] 53.3 µM | [8] 34 µM | [9] 21.8 µM | [10] 27.7 µM | [11] 18.5 µM | [12] 24.7 µM | [13] 39.5 µM | [14] 29.6 µM | [15] 20 µM | [16] 34.1 µM | [17] 23.2 µM | [18] 21.2 µM | [20] 36.6 µM
